# Experimental data published in patent USRE34313E, “Pharmaceutical compositions” (priority 1983, dated 1993).
# Like-named read-outs stand apart in the source and are kept apart here.
# How the values were obtained:
# Horse spleen ferritin [1] = details: cited from earlier work
# [2] = log Ksol, affinity for iron(III); type: physicochemical
# Source text: In order to solubilise iron(III) hydroxide, log Ksol must be greater than 0 and in order to remove iron from transferrin, log Ksol should be in excess of 6.0.
# physchem = details: pH 7.4; for Partition coefficient Kpart, Iron complex [FeIII-(compound)3]: 100 uM; for logD at 100 µM: tris hydrochloride 20 mm
# Experimental: Acid washed glassware is used throughout and, following mixing of 5 ml of the 10^-4 M aqueous solution with 5 ml n-octanol for 1 minute, the aqueous n-octanol mixture is centrifuged at 1,000 g for 30 seconds. The two resulting phases are separated for a concentration determination by spectrophotometry on each. For the free hydroxypyridones, the range 220-340 nm is used for concentration determinations whilst for the iron complexes, the range […] is used.
# Horse spleen ferritin [3] = test: Mobilisation of iron from ferritin; type: biochemical; details: 3×10^-3 M pyridone, ferritin 10^-6 M, pH 7.4, dialysis
# Experimental: Horse spleen ferritin (Sigma) was without further purification and its iron content was estimated spectrophotometrically at 420 nm. The ferritin solution in phosphate buffered saline (Dulbecco-OXOID, 10^-6 M, pH 7.4) was enclosed in a Visking dialysis tube and dialysed against a 3×10^-3 M buffered solution of one of various pyridones as indicated in Table 2. The absorption spectrum of the resulting iron(III) complex in the dialysis solution was recorded after 6 and 24 hours. For comparative purposes, the procedure was repeated using a blank control.
# Human transferrin = test: Mobilisation of iron from transferrin; type: biochemical; details: 4×10^-3 M compound, 59Fe(III) transferrin 10^-5 M; for Percentage of iron removed from transferrin, 6 hours: tris HCl pH 7.4, 6 hours; for Percentage of iron removed from transferrin, 24 hours: tris HCl pH 7.4, 24 hours
# Experimental: The solution was then dialysed against phosphate buffered saline for 24 hours. The ^59 Fe remaining in the dialysis tube was then […]. For comparative purposes, this procedure was repeated with desferrioxamine and EDTA.
# Mice = test: In vivo test of iron binding capacity: excretion of 59Fe in iron-loaded mice; details: control = 100% excretion
# Experimental: Mice were injected intraperitoneally with iron dextran (2 mg) at weekly intervals over a four week period. Two weeks after the final injection, the mice were injected via the tail vein with ^59 Fe Lactoferrin (human lactoferrin, 1 mg per injection 2 μCi). The mice were then caged individually. After a ten day period, 1,4-hydroxypyrid-2-one was administered to groups of 8 mice at 10 mg per mouse either intraperitoneally or intragastrically (in each case 3 of the mice received only one dose whilst 5 received 2 doses at a 24 hour interval). The excretion of iron was recorded at either 12 or 24 hourly intervals over a three day period before and a two day period after administration of the compound. For comparative purposes, the procedure was repeated with a blank control and with desferrioxamine, also at 10 mg per mouse (the intraperitoneally treated mice receiving one dose of desferrioxamine and the intragastrically treated mice two doses at a 24 hour interval).
# The results are shown in Table 4, being given on the basis of the control representing 100% excretion, and illustrate the particular advantage of the pyridones as compared with desferrioxamine for oral administration. […] However, this is not the case here, the large SD values being a consequence of the large range among the positive responses.
# inverted rat jejunal sac = test: In vitro permeation of rat jejunal sac by iron complexes; details: uptake into serosal space of everted rat jejunal sac, 37° C., up to 1 hour, relative to ferric chloride as 1
# Experimental: The iron uptake into the serosal space of the inverted rat jejunal sac was compared for various iron compounds. Rats (male Sprague Dawley, 60 g) were killed and the jejunum removed, everted and cut into three segments (4 cm length). The segments were tied at both ends and filled with Krebs Ringer buffer (0.2 ml) and incubated in Krebs Ringer buffer containing ^59 Fe complexes at 37° C. for periods up to 1 hour. The contents of the sac were counted for ^59 Fe and measured spectrophotometrically.
# Apotransferrin = test: Ability of iron complexes to donate iron to apotransferrin; type: biochemical; details: complex 10^-4 M, apotransferrin 10^-4 M, tris hydrochloride pH 7.4, 37° C., 10 minutes
# Experimental: Apotransferrin (10^-4 M) and the iron complex of 1-hydroxy-4-methoxypyrid-4-one (10^-4 M; prepared as described in Example 7) were incubated together in tris hydrochloride (50 mM, buffered to pH 7.4) at 37° C. for 10 minutes when a 1 ml aliquot was removed from the medium and added to a PD10 colum. 0.5 ml fractions were collected directly into scintillation vials for counting.
log Ksol [2],"Partition coefficient Kpart, Iron complex [FeIII-(compound)3] (physchem)",logD at 100 µM (physchem),SMILES,"Percentage of iron removed from ferritin, 6 hours (Horse spleen ferritin [3])","Percentage of iron removed from ferritin, 24 hours (Horse spleen ferritin [3])","Percentage of iron removed from transferrin, 6 hours (Human transferrin)","Percentage of iron removed from transferrin, 24 hours (Human transferrin)",also measured
–,–,–,O=C(NCCCCN(CCCNC(=O)c1cc(S(=O)(=O)O)cc(O)c1O)C(=O)c1cc(S(=O)(=O)O)cc(O)c1O)c1cc(S(=O)(=O)O)cc(O)c1O [LICAMS],–,–,–,–,"Percentage of iron removed from ferritin, 6 hours (Horse spleen ferritin [1]; 6 mM LICAMS + 12 mM ascorbic acid, similar test from literature (Tufano et al)): 7%"
2.0,–,–,"O=C(O)CN(CCN(CC(=O)O)CC(=O)O)CCN(CC(=O)O)CC(=O)O [diethylenetriamine pentaacetic acid, reference compound]",–,–,–,–,–
–,–,–,"[Cl][Fe]([Cl])[Cl] [FeCl3, ferric chloride]",–,–,–,–,Relative Iron Uptake (inverted rat jejunal sac): 1
11.3,4.85,-0.824,COc1ccn(O)c(=O)c1 [1-hydroxy-4-methoxypyrid-2-one],13%,46%,70%,71%,–
–,–,–,COc1ccn([O-])c(=O)c1.COc1ccn([O-])c(=O)c1.COc1ccn([O-])c(=O)c1.[Fe+3],–,–,–,–,iron removed from the iron complex (donated to apotransferrin) (Apotransferrin): over 90%
–,–,–,O=C([O-])[C@H](O)[C@@H](O)[C@H](O)[C@H](O)CO.O=C([O-])[C@H](O)[C@@H](O)[C@H](O)[C@H](O)CO.[Fe+2] [Fe^II gluconate],–,–,–,–,Relative Iron Uptake (inverted rat jejunal sac): 1.6
–,–,–,"O=C(O)CN(CCN(CC(=O)O)CC(=O)O)CC(=O)O [EDTA, ethylenediamine tetra-acetic acid, reference compound]",–,–,27%,67%,–
6.0,–,–,"CC(=O)N(O)CCCCCNC(=O)CCC(=O)N(O)CCCCCNC(=O)CCC(=O)N(O)CCCCCN [Desferrioxamine, desferrioxamine, reference compound]",–,–,17%,22%,"Percentage of iron removed from ferritin, 6 hours (Horse spleen ferritin [1]; 1 mM desferrioxamine, similar test from literature (Crichton et al)): 1.5%"
–,0.6,-0.854,COCCOc1ccn(O)c(=O)c1 [1-hydroxy-4-(2'-methoxyethoxy)-pyrid-2-one],2%,8%,72%,75%,–

SMILES,log Ksol [2],"Partition coefficient Kpart, Iron complex [FeIII-(compound)3] (physchem)",logD at 100 µM (physchem),"Percentage of iron removed from ferritin, 6 hours (Horse spleen ferritin [3])","Percentage of iron removed from ferritin, 24 hours (Horse spleen ferritin [3])","Percentage of iron removed from transferrin, 6 hours (Human transferrin)","Percentage of iron removed from transferrin, 24 hours (Human transferrin)",also measured
"O=c1cc(O)ccn1O [1,4-dihydroxypyrid-2-one]",9.9,0.04,-1.4,22%,54%,80%,91%,"Excretion of 59Fe ± SD, Intraperitoneal Administration (Mice; 10 mg per mouse i.p.): 195 ± 57%; Excretion of 59Fe ± SD, Intragastric Administration (Mice; 10 mg per mouse intragastrically): 166 ± 40%"
